Test results published in patent US12350308B2, “Phosphorylcholine conjugates and uses thereof” (TPCERA LTD., priority 2013, dated 2025).
Where no end group is shown, it is not given here.

Key:
[1] = test system: Tregs CD4+CD25+FOXP3+; experiment: T regulatory cell profiling by FACS in splenocytes of lupus mice (PC-tuftsin study); type: in vivo; details: PBS 4±0.6 percent
Method: Mice, from age of 14 weeks, received subcutaneously PC-tuftsin at the concentration of 50 μg/0.1 ml per mouse (treatment; n=10) or PBS (control; n=10), three times a week. In the cytokines studies, the relative mRNA expression levels of pro-inflammatory cytokine IFNγ and anti-inflammatory cytokine TGFβ were analyzed by real time RT-PCR using LightCycler (Roche). Total RNA was isolated from splenocytes and was reverse-transcribed into cDNA by using Moloney Murine Leukemia Virus Reverse Transcriptase (Promega). The resulting cDNA was subjected to real-time RT-PCR in the presence of specific primers, according to the manufacturer's instructions (Table 2). The relative expression levels of IFNγ and TGFβ were normalized to β-actin levels.
Finally, a T regulatory cell (Tregs) profiling assay was performed in isolated splenocytes incubated with the following antibodies: anti-CD4^+FITC, anti-CD25^+APC and anti-FOXP3^+PE (eBioscience) and analyzed by FACS. Forward and side scatter gates adjusted to include all cells and to exclude debris (Becton Dickinson). Cells were gated on CD4+ cells, and for intracellular staining, the cells were incubated with a fixation solution, washed and resuspended in permeabilization solution (Serotec). Isotype control was used as reference.

[2] = test system: female NZBxW/F1 lupus prone mice; experiment: Proteinuria onset and immune complex deposits in lupus prone mice treated with TD-PC; type: in vivo; details: s.c., prophylactic from week 14
Excerpt: To examine the potential protective effect of TD-PC (SEQ ID NO: 25 conjugated to PC), female NZBxW/F1 lupus prone mice received subcutaneous injections (s.c) of the TD-PC conjugate, phosphorylcholine (PC), tuftsin derivative (SEQ ID NO: 25) or PBS (control) via a prophylactic protocol starting at week 14, before the clinical onset of lupus (n ¼ 15 per group).

[3] = test system: NZBxW/F1 lupus mice; experiment: Survival of lupus mice treated with TD-PC (Kaplan-Meier); type: in vivo; details: already at week 24
Method: A main complication of lupus nephritis is a short survival time due to severe kidney failure. Therefore, the survival time of mice treated either with TD-PC or with PC, tuftsin derivative (SEQ ID NO: 25) or PBS (control) was analyzed.

[4] = test system: NZBxW/F1 lupus mice; experiment: Circulating anti-dsDNA antibodies in lupus mice treated with TD-PC (ELISA); type: in vivo; details: sera at 30 weeks, dilution 1:800; between groups incl. PBS
Method: Titers of circulating anti-dsDNA antibodies in the sera of control and treated mice were monitored during the development of lupus, and their levels were measured every 3 weeks. […] FIG. 23 presents the anti dsDNA antibodies titers in the sera at the age 30 weeks at a dilution of 1:800.

[5] = test system: splenocytes of NZBW/F1 female mice; experiment: Cytokine secretion in-vitro by splenocytes of lupus mice treated with TD-PC; type: in vivo; details: vs PBS; for IL-17 secretion from splenocytes: in vitro; for IL-10 secretion by splenocytes / TGFβ production by splenocytes / reduction of splenocyte secretion of IFNγ: in-vitro
Method: NZBW/F1 female mice having lupus were treated with TD-PC (SEQ ID NO: 25 conjugated to PC) or the corresponding control treatments. Mice were sacrificed at week 30, and their splenocytes were studied in-vitro for the expression of pro-inflammatory cytokines (IFNγ, IL-17) and anti-inflammatory (TGFβ, IL-10) cytokines using RT-PCR. […] In contrast, TD-PC increased the mRNA expression of the anti-inflammatory cytokine TGFβ in the (p<0.001) compared to the mRNA expressed by splenocytes derived from PBS-treated mice (FIG. 24A).
However, a prominent increase in anti-inflammatory cytokines (TGFβ, IL-10) secretion in-vitro by splenocytes derived from TD-PC treated mice is illustrated in FIG. 24B. […] IFNγ secretion upon tuftsin derivative (SEQ ID NO: 25) or PC treatments was reduced by 2.5 and 1.5 times respectively (p<0.03 and p<0.04, respectively).

[6] = test system: CD4+CD25+FOXP3+ Tregs; experiment: Treg expansion in spleen cells of lupus mice treated with TD-PC (FACS); type: in vivo; details: gating on CD4+ T cells; PBS 4%
Excerpt: The percentage of CD4+CD25+FOXP3+ Tregs phenotype subset in spleen cells following treatment with TD-PC, tuftsin derivative (SEQ ID NO: 25), PC or PBS, is elucidated in FIGS. 25A-25B.

[7] = test system: DBA/1 CIA mice; experiment: Arthritis score in mice with established CIA (treatment from day 16); type: in vivo; details: for mean arthritis score: day 35, s.c. 3 times a week, PBS 13.8±0.45; for average arthritis score: time 0 (treatment initiation, day 16 after disease induction), baseline
Excerpt: Rheumatoid Arthritis is a progressive joint deformation disease caused by severe inflammation. CIA mice were subjected to subcutaneous injections of TD-PC, tuftsin derivative (SEQ ID NO: 25), PC, a mix of TD and PC, or PBS, 3 times a week. […] Treatment started as day 16 after disease induction when disease symptoms were already notable. […] The significant reduction in arthritis score was illustrious from day 7 after treatment administration and lasted until day 35 (the day mice were sacrificed).

[8] = test system: splenocytes derived from CIA mice; experiment: Cytokine secretion in-vitro by splenocytes of mice with established CIA; type: in vivo; details: splenocyte culture fluids; for mean IL-10 level: PBS 298; for mean IL-6 level: PBS 840; for mean IL-1β level: PBS 883; for mean TNF-α level: PBS 1073; for mean IL-17 level: PBS 2170
Method: Secretion, in-vitro, of pro-inflammatory and anti-inflammatory cytokines by splenocytes derived from CIA mice treated with TD-PC, PBS, TD, PC, TD+PC or untreated mice was evaluated (FIGS. 32A-32D). The following cytokines secretions were examined: pro-inflammatory IL-1β (FIG. 32A), IL-17 (FIG. 32B), IL-6 (FIG. 32C), TNF-α (FIG. 32D) and anti-inflammatory IL-10 (FIG. 32E).

[9] = test system: CD4+CD25+FOXP3+ Treg cells; experiment: Treg expansion in splenocytes of mice with established CIA (FACS); type: in vivo; details: isolated splenocytes; PBS 1.4%
Excerpt: The frequency of CD4+CD25+FOXP3+ Treg cells subset in isolated splenocytes from mice treated with TPC, PBS, TD (SEQ ID NO: 25), PC, TD+PC or untreated is elucidated in FIGS. 33A and 33B. […] Representative data of the CD4+CD25+FOXP3+ levels in splenocytes derived from TD-PC, PBS, TD (SEQ ID NO: 25), PC and TD+PC treated mice and the untreated group, gating on CD4+ T cells are presented in FIG. 33B.

[10] = test system: IL-10+CD25+CD1d+ Breg cells; experiment: Breg expansion in splenocytes of mice with established CIA (FACS); type: in vivo; details: isolated splenocytes; PBS 0.4%
Method: The mean percentage of Breg cells in isolated splenocytes following treatment with TD-PC, PBS, TD (SEQ ID NO: 25), PC, TD+PC and None was measured within IL-10+CD25+CD1d+ subset. […] Representative data of IL-10+CD25+CD1d+ levels in splenocytes derived from TD-PC, PBS, TD (SEQ ID NO: 25), PC and TD+PC treated mice gating on IL-10+ B cells, are presented in FIG. 34A.

[11] = Dagan S et al., 1987; cited from earlier work

| Molecule | enhancement in Tregs CD4+CD25+FOXP3+ expression level [1] | immune complex (IC) deposits in the mesangium / nephritis class [2] | percentage of death number vs PBS injected mice [3] | titers of circulating anti-dsDNA antibodies [4] | IL-17 secretion from splenocytes [5] | IL-10 secretion by splenocytes [5] | TGFβ production by splenocytes [5] | reduction of splenocyte secretion of IFNγ [5] [times] | CD4+CD25+FOXP3+ Tregs in spleen cells [6] [%] | mean arthritis score [7] | average arthritis score [7] | mean IL-10 level [8] [pg/mL] | mean IL-6 level [8] [pg/mL] | mean IL-1β level [8] [pg/mL] | mean TNF-α level [8] [pg/mL] | mean IL-17 level [8] [pg/mL] | mean percentage of CD4+CD25+FOXP3+ Treg cells [9] [%] | mean percentage of IL-10+CD25+CD1d+ Breg cells [10] | effect on disease progression [11] |
| --- | --- | --- | --- | --- | --- | --- | --- | --- | --- | --- | --- | --- | --- | --- | --- | --- | --- | --- | --- |
| C[N+](C)(C)CCOP(=O)(O)O [PC, phosphorylcholine] | did not cause any significant elevation | did not diminish the development of strong mesangial damage | significant difference | No statistically significant change | to a lower extent | did not have any effect | minimal effect | 1.5 | 3 | 14±0 | 3.4±1.1 | 300 | 795 | 860 | 1048 | 2179 | 0.81 | 0.44% | inhibitory effect |
| TKPRGY [TD] |  | moderate but not significant effect | significant difference | No statistically significant change | Less significant inhibition | increased IL-10 secretion by splenocytes in-vitro but less significant | moderately enhanced | 2.5 | 8 | 13.8±0.45 | 4.6±1.5 | 304 | 778 | 896 | 1079 | 2217 | 0.52 | 0,5% |  |
| threonine-lysine-proline-arginine [tuftsin] | did not cause any significant elevation |  |  |  |  |  |  |  |  |  |  |  |  |  |  |  |  |  |  |
